Experimental data taken from article PMC5971061, “Differential Effects of Linkers on the Activity of Amphiphilic Tobramycin Antifungals” (Molecules : A Journal of Synthetic Chemistry and Natural …, 2018).
≈ marks a conversion by molar mass, not a printed value. Read-outs that look alike come from different tables or passages of the source.

Columns and labels:
[1] = tested on: Candida krusei ATCC 6258 (strain I); assay: MIC, broth microdilution (CLSI M27-A3), yeast strain I; assay type: cell-based; details: Pichia kudriavzevii, ATCC6258; MIC-0, strain I, 35 °C 48 h
Method: (§1) The final concentrations of compounds 3, 4, 7a, 7b, 9, and 16, as well as that of TOB tested in this study ranged from 0.24–62.5 μg/mL. CAS was used as a positive control and the final concentrations tested for CAS ranged from 0.03–31.3 μg/mL. Briefly, overnight yeast cultures were grown in yeast peptone dextrose (YPD) broth and the cell density was adjusted to an OD600 of 0.12 (~1 × 10^6 CFU/mL) by using a spectrophotometer. Yeast cell suspensions were further diluted to achieve 1–5 × 10^3 CFU/mL in RPMI 1640 medium, and 100 μL of these yeast cells was added to 96-well microtiter plates containing RPMI 1640 medium and titrated compounds. Each test was performed in triplicate. The plates were incubated at 35 °C for 48 h.

[2] = tested on: nine non-albicans Candida strains (H-J, CG1-3, CP1-3); assay: MIC across the panel of nine non-albicans Candida strains; assay type: cell-based, Candida glabrata, Candida krusei, Candida parapsilosis
Method: as §1

[3] = tested on: C. albicans ATCC 10231 (strain A); assay: MIC, broth microdilution (CLSI M27-A3), yeast strain A; assay type: cell-based, Candida albicans; details: Candida albicans, ATCC10231; MIC-0, strain A, 35 °C 48 h
Method: as §1

[4] = tested on: Cryptococcus neoformans clinical isolate CN1; assay: MIC, broth microdilution (CLSI M27-A3), CN1; assay type: cell-based; details: MIC-0, CN1, 35 °C 48 h
Method: as §1

[5] = tested on: Candida glabrata clinical isolate CG1; assay: MIC, broth microdilution (CLSI M27-A3), CG1; assay type: cell-based; details: Nakaseomyces glabratus; MIC-0, CG1, 35 °C 48 h
Method: as §1

BEAS-2B cell line = assay: In vitro cytotoxicity assay (resazurin), BEAS-2B; assay type: cell-based, human; details: 24 h
Method: Mammalian cytotoxicity assays were performed as previously described with minor modifications. The normal human bronchial epithelial cells BEAS-2B and the human lung carcinoma epithelial cells A549 were grown in DMEM containing 10% fetal bovine serum (FBS) and 1% antibiotics. The confluent cells were then trypsinized with 0.05% trypsin and 0.53 mM EDTA, and resuspended in fresh DMEM medium. The cells were transferred into 96-well microtiter plates at a density of 3000 cells/well and were grown for 24 h. The following day, the medium was replaced by a fresh culture medium containing serially diluted compounds 3, 4, 7a, 7b, and 9, as well as the parent drug TOB at final concentrations of 0.48–62.5 μg/mL or sterile ddH2O (negative control). The cells were incubated for an additional 24 h at 37 °C with 5% CO2 in a humidified incubator. To evaluate cell survival, each well was treated with 10 μL (25 μg/mL) of resazurin sodium salt (Sigma-Aldrich) for 4–6 h. Metabolically active cells can convert resazurin (blue) to the highly fluorescent dye resorufin (pink), which was detected at λ560 excitation and λ590 emission wavelengths by using a SpectraMax M5 plate reader. Triton X-100® (1% v/v) gave the complete loss of cell viability and was used as the positive control. The percentage survival rates were calculated by using the following formula: % cell survival = [(fluorescence of sample) − (fluorescence of blank)] × 100/[(fluorescence of negative control) − (fluorescence of blank)].

[6] = tested on: Candida glabrata clinical isolate CG2; assay: MIC, broth microdilution (CLSI M27-A3), CG2; assay type: cell-based; details: Nakaseomyces glabratus; MIC-0, CG2, 35 °C 48 h
Method: as §1

[7] = tested on: Candida parapsilosis clinical isolate CP3; assay: MIC, broth microdilution (CLSI M27-A3), CP3; assay type: cell-based; details: MIC-0, CP3, 35 °C 48 h
Method: as §1

[8] = tested on: Candida glabrata ATCC 2001 (strain H); assay: MIC, broth microdilution (CLSI M27-A3), yeast strain H; assay type: cell-based; details: Nakaseomyces glabratus, ATCC2001; MIC-0, strain H, 35 °C 48 h
Method: as §1

Hemolytic activity assay = assay type: cell-based, murine; details: mouse, murine red blood cells (mRBCs), mRBCs, 37 °C 1 h, ± SDEV
Method: The hemolytic activity of compounds 3, 4, 7a, 7b, and 9 as well as the parent compound TOB was determined by using previously described methods with minor modifications. Murine whole blood (1 mL) was suspended in 4 mL of PBS and centrifuged at 1000 rpm for 10 min at room temperature to obtain murine red blood cells (mRBCs). The mRBCs were washed four times in PBS and resuspended in the same buffer to a final concentration of 10^7 erythrocytes/mL. Two-fold serial dilutions of compounds 3, 4, 7a, 7b, and 9 were prepared using 100 μL of PBS buffer in Eppendorf tubes followed by the addition of 100 μL of mRBC suspension that made the final concentration of compounds and mRBCs to be 0.48–62.5 μg/mL and 5 × 10^6 erythrocytes/mL, respectively. The tubes were incubated at 37 °C for 1 h. The tubes with PBS buffer (200 μL) and Triton X-100® (1% v/v, 2 μL) served as the negative (blank) and positive controls, respectively. The percentage of hemolysis was calculated using the following equation: % hemolysis = [(absorbance of sample) − (absorbance of blank)] × 100/(absorbance of positive control).

[9] = tested on: Aspergillus nidulans ATCC 38163 (strain L); assay: MIC, filamentous fungi (CLSI M38-A2), strain L; assay type: cell-based; details: MIC-0, strain L, 35 °C 72 h
Method: The spores were harvested from sporulating cultures growing on potato dextrose agar (PDA) by filtration through sterile glass wool and enumerated by using a hemocytometer (Hausser Scientific, Horsham, PA, USA) to obtain the desired inoculum size. Two-fold serial dilutions of compounds 3, 4, 7a, 7b, 9, and 16, as well as CAS and TOB were made in sterile 96-well microtiter plates to obtain the final concentration range of 0.24–62.5 μg/mL for TOB and TOB derivatives as well as 0.03–31.3 μg/mL for CAS in the RPMI 1640 medium. The spore suspensions were added to the wells to afford a final concentration of 5 × 10^5 spores/mL. The plates were incubated at 35 °C for 72 h. […] Each test was performed in triplicate.

[10] = tested on: Candida parapsilosis clinical isolate CP1; assay: MIC, broth microdilution (CLSI M27-A3), CP1; assay type: cell-based; details: Lodderomyces parapsilosis; MIC-0, CP1, 35 °C 48 h
Method: as §1

[11] = tested on: Cryptococcus neoformans clinical isolate CN3; assay: MIC, broth microdilution (CLSI M27-A3), CN3; assay type: cell-based; details: MIC-0, CN3, 35 °C 48 h
Method: as §1

[12] = Aspergillus nidulans, ATCC38163, 72 h, read-out: MIC

| MIC [1] [µg/mL] | MIC [2] [µg/mL] | MIC [3] [µg/mL] | MIC [4] [µg/mL] | MIC [5] [µg/mL] | MIC [6] [µg/mL] | MIC [7] [µg/mL] | MIC [8] [µg/mL] | MIC [9, 12] [µg/mL] | MIC [10] [µg/mL] | MIC [11] [µg/mL] | SMILES | hemolysis at 1 h, 0.48 μg/mL (Hemolytic activity assay) [%] | hemolysis at 1 h, 0.975 μg/mL (Hemolytic activity assay) [%] | hemolysis at 1 h, 1.95 μg/mL (Hemolytic activity assay) [%] | hemolysis at 1 h, 3.9 μg/mL (Hemolytic activity assay) [%] | hemolysis at 1 h, 7.8 μg/mL (Hemolytic activity assay) [%] | hemolysis at 1 h, 15.6 μg/mL (Hemolytic activity assay) [%] | hemolysis at 1 h, 31.3 μg/mL (Hemolytic activity assay) [%] | hemolysis at 1 h, 62.5 μg/mL (Hemolytic activity assay) [%] | also measured |
| --- | --- | --- | --- | --- | --- | --- | --- | --- | --- | --- | --- | --- | --- | --- | --- | --- | --- | --- | --- | --- |
| 15.6 (≈ 23.7 µM) | 15.6 to 62.5 (≈ 23.7 to 94.9 µM) | 31.3 (≈ 47.5 µM) | 0.975 (≈ 1.48 µM) | 31.3 (≈ 47.5 µM) | 15.6 (≈ 23.7 µM) | 31.3 (≈ 47.5 µM) | 62.5 (≈ 94.9 µM) | 1.95 to 3.9 (≈ 2.96 to 5.92 µM) | 15.6 (≈ 23.7 µM) | 0.48 (≈ 0.729 µM) | CCCCCCCCCCc1cn(C[C@H]2O[C@H](O[C@@H]3[C@@H](O)[C@H](O[C@H]4O[C@H](CN)[C@@H](O)C[C@H]4N)[C@@H](N)C[C@H]3N)[C@H](O)[C@@H](N)[C@@H]2O)nn1 [Compound 7a, O-3-Amino-3,6-dideoxy-6-(4-decyl-1H-1,2,3-triazol-1-yl)-α-D-glucopyranosyl-(1→6)-O-[2,6-diamino-2,3,6-trideoxy-α-D-ribo-hexopyranosyl-(1→4)]-2-deoxy-D-streptamine] | 0 | 0 | 15.6 ± 9.3 | 0 | 7.4 ± 3.1 | 14 ± 5.4 | 14.8 ± 1.9 | 14.8 ± 0.4 | IC50 (BEAS-2B cell line; Homo sapiens, resazurin): > 62.5 µg/mL; MIC [9]: 3.9 µg/mL (≈ 5.92 µM) |
| > 62.5 | > 62.5 | > 62.5 | > 62.5 | > 62.5 | > 62.5 | > 62.5 | > 62.5 | > 62.5 | > 62.5 | > 62.5 | NC[C@H]1O[C@H](O[C@H]2[C@H](O)[C@@H](O[C@H]3O[C@H](CO)[C@@H](O)[C@H](N)[C@H]3O)[C@H](N)C[C@@H]2N)[C@H](N)C[C@@H]1O [TOB, tobramycin] | 4.7 ± 3.9 | 9.3 ± 3.5 | 15.9 ± 1.9 | 15.9 ± 8.1 | 11.2 ± 4.6 | 15.3 ± 5 | 15.3 ± 2.7 | 21.1 ± 9.3 | toxicity (in words) (BEAS-2B cell line; 0.48-62.5 μg/mL): little to no toxicity |
